Assay results published in PMC8222254, “Self-assembly of an anion receptor with metal-dependent kinase inhibition and potent in vitro anti-cancer properties” (Nature Communications, 2021).
Values joined by “and” are separate entries in the source; they are usually repeats but may differ in a detail not shown here. Equal values may be shown once. Read-outs that look alike come from different tables or passages of the source.

How the values were obtained:
Assay in all cases: Chemosensitivity, 96 h continuous exposure, MTT assay;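 as to SI (NPI): adult human brain neural progenitor non-cancer cells from an epilepsy surgery patient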;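 as to Selectivity Index using the NPI non-cancer cell line: adult human brain neural progenitor non-cancer cells from an epilepsy surgery patient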
Type in all cases: cell-based, human
[1] = tested on: A549;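 as to SI (NPI): adult human brain neural progenitor non-cancer cells from an epilepsy surgery patient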;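 as to Selectivity Index using the NPI non-cancer cell line: adult human brain neural progenitor non-cancer cells from an epilepsy surgery patient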
Summary of the method: (§1)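 Cells seeded at 2 × 10^3/well (GBM1 3 × 10^3/well) and left overnight at 37 °C, then exposed continuously for 96 h to a range of compound concentrations (final DMSO 0.2%). Viability read by MTT, absorbance at 540 nm; IC50 taken from dose-response curves as concentration reducing cell growth by 50%.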

[2] = tested on: BxPC3
Summary of the method: as §1

[3] = tested on: HCT116 p53+/+
Summary of the method: as §1

[4] = tested on: HT-29
Summary of the method: as §1

[5] = tested on: PSN1
Summary of the method: as §1

[6] = tested on: DLD-1
Summary of the method: as §1

[7] = tested on: HCT116 p53-/-
Summary of the method: as §1

## [Cu+2].[Cu+2].[Cu+2].c1ccc(-c2csc(NCCN(CCNc3nc(-c4ccccn4)cs3)CCNc3nc(-c4ccccn4)cs3)n2)nc1.c1ccc(-c2csc(NCCN(CCNc3nc(-c4ccccn4)cs3)CCNc3nc(-c4ccccn4)cs3)n2)nc1 [[L2Cu3]6+]
[1]; A549, 96 h, MTT, individual run, read-out: IC50 values for each replicate
  IC50: 256 nM and 189 nM and 254 nM
[1]; A549, 96 h, MTT, mean of at least 3 independent experiments, read-out: Mean IC50
  IC50: 233 nM
[1]; A549, mean of replicates, read-out: Mean IC50
  IC50: 233 nM
[1]; A549, read-out: Mean IC50 values
  IC50: 233 nM
[1]; IC50 ARPE-19 / IC50 A549
  Selectivity index (ARPE19): 225.88
[1]; IC50 MCF10A / IC50 A549
  Selectivity index (MCF10A): 207.12
[1]; IC50 NP1 / IC50 A549
  Selectivity Index using the NPI non-cancer cell line: 184.94
[1]; mean IC50 ARPE-19 / mean IC50 A549
  SI (ARPE19): 225.88
[1]; mean IC50 MCF10A / mean IC50 A549
  SI (MCF10A): 207.12
[1]; mean IC50 NP1 / mean IC50 A549
  SI (NPI): 184.94
[1]; ratio of IC50, A549
  Relative potency (+ anion to no anion), Ratio + anion:no anion: 1
[1]; ratio of SI (ARPE-19), A549
  Selectivity indices relative to ARPE-19, Ratio + anion:no anion: 1
[1]; ratio of SI (MCF 10A), A549
  Selectivity indices relative to MCF10A, Ratio + anion:no anion: 1
[2]; BXPC3, mean of replicates, read-out: Mean IC50
  IC50: 293 nM
[2]; BXPC3, read-out: Mean IC50 values
  IC50: 293 nM
[2]; BxPC3, 96 h, MTT, individual run, read-out: IC50 values for each replicate
  IC50: 226 nM and 267 nM and 443 nM and 237 nM
[2]; BxPC3, 96 h, MTT, mean of at least 3 independent experiments, read-out: Mean IC50
  IC50: 293 nM
[2]; IC50 ARPE-19 / IC50 BXPC3
  Selectivity index (ARPE19): 179.62
[2]; IC50 MCF10A / IC50 BXPC3
  Selectivity index (MCF10A): 164.71
[2]; IC50 NP1 / IC50 BXPC3
  Selectivity Index using the NPI non-cancer cell line: 147.06
[2]; mean IC50 ARPE-19 / mean IC50 BxPC3
  SI (ARPE19): 179.62
[2]; mean IC50 MCF10A / mean IC50 BxPC3
  SI (MCF10A): 164.71
[2]; mean IC50 NP1 / mean IC50 BxPC3
  SI (NPI): 147.06
[2]; ratio of IC50, BXPC3
  Relative potency (+ anion to no anion), Ratio + anion:no anion: 1
[2]; ratio of SI (ARPE-19), BXPC3
  Selectivity indices relative to ARPE-19, Ratio + anion:no anion: 1
[2]; ratio of SI (MCF 10A), BXPC3
  Selectivity indices relative to MCF10A, Ratio + anion:no anion: 1
[3]; HCT116 p53+/+, 96 h, MTT, individual run, read-out: IC50 values for each replicate
  IC50: 240 nM and 533 nM and 528 nM and 499 nM and 677 nM
[3]; HCT116 p53+/+, 96 h, MTT, mean of at least 3 independent experiments, read-out: Mean IC50
  IC50: 496 nM
[3]; HCT116 p53+/+, mean of replicates, read-out: Mean IC50
  IC50: 496 nM
[3]; HCT116 p53+/+, read-out: Mean IC50 values
  IC50: 496 nM
[3]; IC50 ARPE-19 / IC50 HCT116 p53+/+
  Selectivity index (ARPE19): 106.11 and 106.2
[3]; IC50 MCF10A / IC50 HCT116 p53+/+
  Selectivity index (MCF10A): 97.30
[3]; IC50 NP1 / IC50 HCT116 p53+/+
  Selectivity Index using the NPI non-cancer cell line: 86.88
[3]; mean IC50 ARPE-19 / mean IC50 HCT116 p53+/+
  SI (ARPE19): 106.11
[3]; mean IC50 MCF10A / mean IC50 HCT116 p53+/+
  SI (MCF10A): 97.30
[3]; mean IC50 NP1 / mean IC50 HCT116 p53+/+
  SI (NPI): 86.88
[3]; ratio of IC50, HCT116 p53+/+
  Relative potency (+ anion to no anion), Ratio + anion:no anion: 1
[3]; ratio of SI (ARPE-19), HCT116 p53+/+
  Selectivity indices relative to ARPE-19, Ratio + anion:no anion: 1
[3]; ratio of SI (MCF 10A), HCT116 p53+/+
  Selectivity indices relative to MCF10A, Ratio + anion:no anion: 1
[4]; HT29, mean of replicates, read-out: Mean IC50
  IC50: 213 nM
[4]; HT29, read-out: Mean IC50 values
  IC50: 214 nM
[4]; HT-29, 96 h, MTT, individual run, read-out: IC50 values for each replicate
  IC50: 184 nM and 210 nM and 273 nM and 226 nM and 174 nM
[4]; HT-29, 96 h, MTT, mean of at least 3 independent experiments, read-out: Mean IC50
  IC50: 214 nM
[4]; IC50 ARPE-19 / IC50 HT29
  Selectivity index (ARPE19): 245.93
[4]; IC50 MCF10A / IC50 HT29
  Selectivity index (MCF10A): 225.51
[4]; IC50 NP1 / IC50 HT29
  Selectivity Index using the NPI non-cancer cell line: 201.36
[4]; mean IC50 ARPE-19 / mean IC50 HT-29
  SI (ARPE19): 245.93
[4]; mean IC50 MCF10A / mean IC50 HT-29
  SI (MCF10A): 225.51
[4]; mean IC50 NP1 / mean IC50 HT-29
  SI (NPI): 201.36
[4]; ratio of IC50, HT29
  Relative potency (+ anion to no anion), Ratio + anion:no anion: 1
[4]; ratio of SI (ARPE-19), HT29
  Selectivity indices relative to ARPE-19, Ratio + anion:no anion: 1
[4]; ratio of SI (MCF 10A), HT29
  Selectivity indices relative to MCF10A, Ratio + anion:no anion: 1
[5]; IC50 ARPE-19 / IC50 PSN1
  Selectivity index (ARPE19): 8.16
[5]; IC50 MCF10A / IC50 PSN1
  Selectivity index (MCF10A): 7.48
[5]; IC50 NP1 / IC50 PSN1
  Selectivity Index using the NPI non-cancer cell line: 6.68
[5]; PSN1, 96 h, MTT, individual run, read-out: IC50 values for each replicate
  IC50: 6270 nM and 6080 nM and 7010 nM
[5]; PSN1, 96 h, MTT, mean of at least 3 independent experiments, listed as [L2Cu3]^6+, read-out: Mean IC50
  IC50: > 1000 nM
[5]; PSN1, 96 h, MTT, mean of at least 3 independent experiments, read-out: Mean IC50
  IC50: 6450 nM
[5]; PSN1, mean of replicates, read-out: Mean IC50
  IC50: 6450 nM
[5]; PSN1, read-out: Mean IC50 values
  IC50: 6450 nM
[5]; mean IC50 ARPE-19 / mean IC50 PSN1
  SI (ARPE19): 8.16
[5]; mean IC50 MCF10A / mean IC50 PSN1
  SI (MCF10A): 7.48
[5]; mean IC50 NP1 / mean IC50 PSN1
  SI (NPI): 6.68
[5]; ratio of IC50, PSN1
  Relative potency (+ anion to no anion), Ratio + anion:no anion: 1
[5]; ratio of SI (ARPE-19), PSN1
  Selectivity indices relative to ARPE-19, Ratio + anion:no anion: 1
[5]; ratio of SI (MCF 10A), PSN1
  Selectivity indices relative to MCF10A, Ratio + anion:no anion: 1
[6]; DLD-1, 96 h, MTT, mean of at least 3 independent experiments, read-out: Mean IC50
  IC50: 132 nM
[6]; DLD-1, mean of replicates, read-out: Mean IC50
  IC50: 132 nM
[6]; DLD-1, read-out: Mean IC50 values
  IC50: 132 nM
[6]; IC50 ARPE-19 / IC50 DLD-1
  Selectivity index (ARPE19): 398.71
[6]; IC50 MCF10A / IC50 DLD-1
  Selectivity index (MCF10A): 365.61
[6]; IC50 NP1 / IC50 DLD-1
  Selectivity Index using the NPI non-cancer cell line: 326.44
[6]; mean IC50 ARPE-19 / mean IC50 DLD-1
  SI (ARPE19): 398.71
[6]; mean IC50 MCF10A / mean IC50 DLD-1
  SI (MCF10A): 365.61
[6]; mean IC50 NP1 / mean IC50 DLD-1
  SI (NPI): 326.44
[6]; ratio of IC50, DLD-1
  Relative potency (+ anion to no anion), Ratio + anion:no anion: 1
[6]; ratio of SI (ARPE-19), DLD-1
  Selectivity indices relative to ARPE-19, Ratio + anion:no anion: 1
[6]; ratio of SI (MCF 10A), DLD-1
  Selectivity indices relative to MCF10A, Ratio + anion:no anion: 1
[7]; HCT116 p53-/-, 96 h, MTT, individual run, read-out: IC50 values for each replicate
  IC50: 238 nM and 90 nM and 189 nM and 87 nM and 67 nM and 155 nM
[7]; HCT116 p53-/-, 96 h, MTT, mean of at least 3 independent experiments, read-out: Mean IC50
  IC50: 137 nM
[7]; HCT116 p53-/-, mean of replicates, read-out: Mean IC50
  IC50: 137 nM
[7]; HCT116 p53-/-, read-out: Mean IC50 values
  IC50: 137 nM
[7]; IC50 ARPE-19 / IC50 HCT116 p53-/-
  Selectivity index (ARPE19): 384.16 and 384.82
[7]; IC50 MCF10A / IC50 HCT116 p53-/-
  Selectivity index (MCF10A): 352.26
[7]; IC50 NP1 / IC50 HCT116 p53-/-
  Selectivity Index using the NPI non-cancer cell line: 314.53
[7]; mean IC50 ARPE-19 / mean IC50 HCT116 p53-/-
  SI (ARPE19): 384.16
[7]; mean IC50 MCF10A / mean IC50 HCT116 p53-/-
  SI (MCF10A): 352.26
[7]; mean IC50 NP1 / mean IC50 HCT116 p53-/-
  SI (NPI): 314.53
[7]; ratio of IC50, HCT116 p53-/-
  Relative potency (+ anion to no anion), Ratio + anion:no anion: 1
[7]; ratio of SI (ARPE-19), HCT116 p53-/-
  Selectivity indices relative to ARPE-19, Ratio + anion:no anion: 1
[7]; ratio of SI (MCF 10A), HCT116 p53-/-
  Selectivity indices relative to MCF10A, Ratio + anion:no anion: 1
